These are literature values, as cited in paper PMC7357169, “Blinded, Multicenter Evaluation of Drug-induced Changes in Contractility Using Human-induced Pluripotent Stem Cell-derived Cardiomyocytes” (Toxicological Sciences, 2020).

Like-named read-outs stand apart in the source and are kept apart here.

The test system of one series is heart. On the set-up: method as in Refs column of Supplementary Table 1. The following applies: Refs of Supplementary Table 1; cited from earlier work.
The test system of a further series is cardiac contractility. The conditions noted are these: cited from earlier work; for Expected effect on contractility in isolated cardiomyocytes/heart muscles / IC50 / EC50: Refs of Supplementary Table 1, isolated cardiomyocytes/heart muscles; for IC50: negative inotropy, read-out: Expected effect on contractility in isolated cardiomyocytes/heart muscles, IC50; for EC50: read-out: Expected effect on contractility in isolated cardiomyocytes/heart muscles, EC50.

The conditions of series [1]: cited from earlier work; for FTPC: free therapeutic plasma concentration, Refs of Supplementary Table 1; for FPTC (free plasma therapeutic concentration): ref Supplementary Table 1.
[2] abbreviates: heart muscle, at 500 µM, ref (Kirby et al. 1992), (Baudet et al. 1993).

Take `CN(C)C/C=C(/c1ccc(Br)cc1)c1cccnc1` [Zimelidine]: in the series with heart, the “Expected cardiac effects in vivo” value was “None (at ther. doses), QT and QRS widening at high doses”.
On to `CC(C)[C@@]1(O)[C@@H](OC(=O)c2ccc[nH]2)[C@@]2(O)[C@@]3(C)C[C@]4(O)O[C@@]5([C@H](O)[C@@H](C)CC[C@]35O)[C@@]2(O)[C@@]14C` [ryanodine], for which, in the series with cardiac contractility, the “Expected effect on contractility in isolated cardiomyocytes/heart muscles” value is recorded as “NI, NCl, species dependent biphasic” and the IC50 was ~0.01 µM.
With `COc1ccc(CCN(C)CCCC(C#N)(c2ccc(OC)c(OC)c2)C(C)C)cc1OC` (centres unmarked) [Verapamil], the IC50 in the series on cardiac contractility was 0.1 µM. Moreover, the “Expected cardiac effects in vivo” value in the series with heart is given as “NI (direct) partially masked by adrenergic activation (indirect), NC or none, ND (direct)”.
Regarding `CC(C)NCC(O)COc1ccc(CC(N)=O)cc1` (centres unmarked) [Atenolol], in the series with cardiac contractility, the “Expected effect on contractility in isolated cardiomyocytes/heart muscles” value is given as “None (in absence of agonist) until 3000 µM (in contrast to e.g. propranolol)”. Further, in the series on heart, the “Expected cardiac effects in vivo” value is “NI, NC, ND”.
Take `CN(C)CCCC1(c2ccc(F)cc2)OCc2cc(C#N)ccc21` (centres unmarked) [Citalopram]: in series [1], the FTPC is recorded as 0.05 µM and the “FPTC (free plasma therapeutic concentration)” value is 0.05 µM. In addition, the NI with cardiac contractility (at 30 µM, in hEHT, ref (Witchel et al. 2002), (Mannhardt et al. 2017), (Rao 2007)) was -57%. Moreover, the NI in the series with cardiac contractility (at 30 µM, in human atria, ref (Witchel et al. 2002), (Mannhardt et al. 2017), (Rao 2007)) is on record as -38%. The “Expected effect on contractility in isolated cardiomyocytes/heart muscles” value in the series with cardiac contractility is reported as “NI at 30 µM”. In the series with heart, the “Expected cardiac effects in vivo” value is “None (at therapeutic doses), higher risk of TdP”.
As for `COc1ccc(Cl)cc1C(=O)NCCc1ccc(S(=O)(=O)NC(=O)NC2CCCCC2)cc1` [Glibenclamide], in series [1], the FTPC is 0.02 to 0.06 µM and the “FPTC (free plasma therapeutic concentration)” value is 0.02 to 0.06 µM. For the same compound, the “Expected effect on contractility in isolated cardiomyocytes/heart muscles” value in the series with cardiac contractility is reported as “None; PI in ischemia or presence of KATP opener; NI in adrenalectomized dogs, NE in isolated dog heart trabeculae”. In addition, the “Expected cardiac effects in vivo” value in the series on heart was “None or PI in ischemia”.
`Clc1cccc(Cl)c1N=C1NCCN1` [Clonidine]: in series [1], the FTPC was 0.002 to 0.004 µM and the “FPTC (free plasma therapeutic concentration)” value is 0.002 to 0.004 µM. Moreover, the “Expected effect on contractility in isolated cardiomyocytes/heart muscles” value in the series with cardiac contractility is “None”. Moreover, the “Expected cardiac effects in vivo” value in the series on heart is “NI, NC”.
Consider `CCCc1nn(C)c2c(=O)[nH]c(-c3cc(S(=O)(=O)N4CCN(C)CC4)ccc3OCC)nc12` [Sildenafil], for which the “Expected effect on contractility in isolated cardiomyocytes/heart muscles” value in the series with cardiac contractility was “None”. In addition, in the series with heart, the “Expected cardiac effects in vivo” value is “None or PI+PC (indirect)”.
`CC(C)(C)NCC(O)c1cc(O)cc(O)c1` (centres unmarked) [Terbutaline]: in series [1], the FTPC is 1.3 µM and the “FPTC (free plasma therapeutic concentration)” value was 1.3 µM. Also, the EC50 with cardiac contractility was 3 µM.
For the compound `C/C=C(/C)C(=O)O[C@H]1C(C)=C2[C@H]([C@@H]1OC(=O)CCCCCCC)[C@@](C)(OC(C)=O)C[C@H](OC(=O)CCC)[C@@]1(O)[C@H]2OC(=O)[C@@]1(C)O` [thapsigargin], the NI is given as ~50% in the series with cardiac contractility (setting [2]) and ~90% in the series on cardiac contractility (isolated myocytes, at 0.1 µM, ref (Kirby et al. 1992), (Baudet et al. 1993)). The NL in the series with cardiac contractility (setting [2]) is given as ~20%.
Consider `CC(=O)Oc1ccccc1C(=O)O` [Acetylsalicylic acid], for which, in series [1], the FTPC was 0.3 to 2 µM and the “FPTC (free plasma therapeutic concentration)” value was 0.3 to 2 µM. In the series on cardiac contractility, the “Expected effect on contractility in isolated cardiomyocytes/heart muscles” value was “None”. Moreover, in the series on heart, the “Expected cardiac effects in vivo” value was “None”.
Take `C[C@H](CS)C(=O)N1CCC[C@H]1C(=O)O` [Captopril]: in series [1], the FTPC is 1 to 2 µM and the “FPTC (free plasma therapeutic concentration)” value is 1 to 2 µM. Also, in the series on cardiac contractility, the “Expected effect on contractility in isolated cardiomyocytes/heart muscles” value is on record as “None”. The “Expected cardiac effects in vivo” value in the series with heart is “None”.
With `O=C(NCC1CCCCN1)c1cc(OCC(F)(F)F)ccc1OCC(F)(F)F` (centres unmarked) [Flecainide], the IC50 in the series on cardiac contractility is 0.3 µM.
As to `COC(=O)C1=C(C)NC(C)=C([N+](=O)[O-])C1c1ccccc1C(F)(F)F` (centres unmarked) [Bay K 8644], in the series on cardiac contractility, the “Expected effect on contractility in isolated cardiomyocytes/heart muscles” value is on record as “PI, NL”. Further, the “Expected cardiac effects in vivo” value in the series with heart is reported as “PI (indirect NC because of RR increase)”.
With `Cn1c(=O)c2c(ncn2C)n(C)c1=O` [caffeine], the “Expected effect on contractility in isolated cardiomyocytes/heart muscles” value in the series with cardiac contractility is “Small PI and PL at 100 µM, transient large PI, NL at >10 mM”.
`CNC(=O)c1cc(Oc2ccc(NC(=O)Nc3ccc(Cl)c(C(F)(F)F)c3)cc2)ccn1` [Sorafenib]: in series [1], the FTPC was 0.03 µM and the “FPTC (free plasma therapeutic concentration)” value was 0.03 µM. Also, the “Expected effect on contractility in isolated cardiomyocytes/heart muscles” value in the series on cardiac contractility was “None (feline and canine CM, but cell death), NI (rat heart)”. Moreover, the “Expected cardiac effects in vivo” value in the series with heart is recorded as “None or NI at high doses, delayed cardiotox”.
As for `COc1ccc(C(=O)N2CCCc3cc(C4=NNC(=O)SC4C)ccc32)cc1OC` (centres unmarked) [EMD 57033], the FTPC in series [1] is on record as 16 µM. Moreover, in the series on cardiac contractility, the “Expected effect on contractility in isolated cardiomyocytes/heart muscles” value was “PI, NL” and the EC50 is ~5 µM.
As to `CC(=O)Nc1ccc(O)cc1` [Paracetamol], in series [1], the FTPC is listed as 50 µM and the “FPTC (free plasma therapeutic concentration)” value was 50 µM. Further, the “Expected effect on contractility in isolated cardiomyocytes/heart muscles” value with cardiac contractility is on record as “None”. Further, the “Expected cardiac effects in vivo” value in the series on heart is recorded as “None”.
Regarding `CCC(C)n1ncn(-c2ccc(N3CCN(c4ccc(OCC5COC(Cn6cncn6)(c6ccc(Cl)cc6Cl)O5)cc4)CC3)cc2)c1=O` (centres unmarked) [Itraconazole], in series [1], the FTPC is 0.00086 µM and the “FPTC (free plasma therapeutic concentration)” value was 0.00086 µM. In addition, the NI in the series with cardiac contractility (at 0.3 µM, rabbit heart, ref (Head et al. 2015), (Qu et al. 2013), (Bellmann 2007)) is -30%.
`Cc1ccc(N(CC2=NCCN2)c2cccc(O)c2)cc1` [Phentolamine]: the “free plasma concentration in patients” value in series [1] (patients, ref Wallis et al., 2015) is listed as “approximately 2.5 µM”. Also, in the series with cardiac contractility (above 10 µM, via modulation of fast sodium and L-type calcium channels, ref Rosen et al., 1971, Sada, 1978), the “inotropic effect at concentrations above 10 µM” value was “negative inotropy”. Moreover, the “inotropic effect at free plasma concentrations” value in the series on cardiac contractility (approximately 2.5 µM in patients, ref Wallis et al., 2015) was “neutral inotrope”. Moreover, the IC50 in the series on cardiac contractility is ~20 µM.
